The values below come from patent publication US20170260178A1 (SPERO GYRASE, INC., priority 2012, published 2017).

The subject of assay [1] is S. aureus (ATCC 29213). Briefly: Bacterial assay: MIC against S. aureus. It counts as cell-based, Staphylococcus aureus. The conditions noted are these: Staphylococcus aureus, ATCC29213, read-out: minimal inhibitory concentration (MIC).
Assay [2] relates to S. pyogenes (ATCC 51339). In words: Bacterial assay: MIC against S. pyogenes. It counts as cell-based, Streptococcus pyogenes. The conditions noted are these: Streptococcus pyogenes, ATCC51339, read-out: minimal inhibitory concentration (MIC).
Assay [3] relates to H. influenzae (ATCC 49247). In words: Bacterial assay: MIC against H. influenzae. It counts as cell-based. The conditions noted are these: Haemophilus influenzae, ATCC49247; H. influenzae ATCC 49247; read-out: minimal inhibitory concentration (MIC).
Assay [4] has as its system S. aureus ATCC29213. In words: Rat thigh infection model. It counts as in vivo. To be noted: neutropenic Sprague-Dawley rats, IV ≦40 mg/kg. On the procedure: The thighs of Sprague-Dawley rats (250-275 g), rendered neutropenic by the intraperitoneal administration of cyclophosphamide (75 mg/kg on days −4 and −1), were inoculated with approximately 1×10^7 cfus of S. aureus ATCC29213.
Compounds were administered as indicated 2 hours later and the cfus enumerated at various times post dosing by harvesting the thighs, homogenising in PBS on ice and plating serial dilutions onto CLED agar plates for growth at 37° C. and colony counting.

In assay [5] the test system is S. pneumoniae ATCC6301. In words: Mouse lung infection model (Gram positive). The assay is classed as in vivo. The conditions noted are these: CD-1 mice, IV 30 mg/kg, cfus at 48 hours post inoculation. On the procedure: Anaesthetised female CD-1 mice (18-22 g) were inoculated intranasally with approximately 10^6 cfus of S. pneumoniae ATCC6301 prepared from a fresh overnight culture by placing 50 μl of inoculum on the nares and allowing the mice to inhale. Compounds were administered as indicated at 24 hours post inoculation and the cfus enumerated at 48 hours post inoculation by harvesting the lungs, homogenising in PBS on ice and plating serial dilutions onto TSA+5% blood plates for growth overnight at 37° C. and colony counting.

Assay [6] concerns S. pneumoniae ATCC6301. Briefly: Mouse survival model (lung infection). It counts as in vivo. The conditions noted are these: CD-1 mice. On the procedure: Anaesthetised female CD-1 mice (18-22 g) were inoculated intranasally with approximately 10^6 cfus of S. pneumoniae ATCC6301 prepared from a fresh overnight culture by placing 50 μl of inoculum on the nares and allowing the mice to inhale. Compounds are administered as indicated at 24, 48 and 72 hours post inoculation and the mice monitored for survival for seven or nine days after infection. […] Similarly, when Compound 17 was dosed IV at 30 mg/kg 90% of mice survived at day seven.

SMILES strings stand for the structures.

In the case of `CCNC(=O)Nc1nc2cc(-c3cnc(C(C)(C)O)nc3)cc(-c3ccccn3)c2s1` [Compound 1, 1-ethyl-3-[5-[2-(1-hydroxy-1-methyl-ethyl)pyrimidin-5-yl]-7-(2-pyridyl)-1,3-benzothiazol-2-yl]urea], the MIC in assay [1] was no more than 1 µg/mL; in assay [2] it was no more than 1 µg/mL; in assay [3], no more than 2 µg/mL. For the same molecule, the “log drop in colony forming units compared to the control” value in assay [4] and in assay [5] was no less than 3 log throughout. The same molecule had a mice surviving in assay [6] (IV 10 mg/kg, at seven or nine days) of 80%.
Consider `CCNC(=O)Nc1nc2cc(-c3cnc(C(C)O)nc3)cc(-c3ccccn3)c2s1` (centres unmarked) [Compound 17, 1-ethyl-3-[5-[2-(1-hydroxyethyl)pyrimidin-5-yl]-7-(2-pyridyl)-1,3-benzothiazol-2-yl]urea], for which the MIC was no more than 1 µg/mL in assay [1], no more than 1 µg/mL in assay [2] and no more than 2 µg/mL in assay [3]. Moreover, in assay [6] (IV 30 mg/kg, at day seven), the mice survived is 90%.
With `CCNC(=O)Nc1nc2cc(-c3cnc(C4(O)CCS(=O)(=O)CC4)nc3)cc(-c3ccccn3)c2s1` [Compound 173, 1-ethyl-3-[5-[2-(4-hydroxy-1,1-dioxo-thian-4-yl)pyrimidin-5-yl]-7-(2-pyridyl)-1,3-benzothiazol-2-yl]urea], the MIC was no more than 1 µg/mL in assay [1], no more than 1 µg/mL in assay [2] and no more than 2 µg/mL in assay [3].
As for `CCNC(=O)Nc1nc2cc(-c3cnc(C(C)(C)O)nc3)cc(-c3cc(CN4CC(OCC)C4)ccn3)c2s1` [Compound 175, 1-[7-[4-[(3-ethoxyazetidin-1-yl)methyl]-2-pyridyl]-5-[2-(1-hydroxy-1-methyl-ethyl)pyrimidin-5-yl]-1,3-benzothiazol-2-yl]-3-ethyl-urea], the MIC was no more than 1 µg/mL in assay [1], no more than 1 µg/mL in assay [2] and no more than 2 µg/mL in assay [3].
Take `CCNC(=O)Nc1nc2cc(-c3cnc(C(C)O)nc3)cc(-c3nccc(OC)c3F)c2s1` (centres unmarked) [Compound 178, 1-ethyl-3-[7-(3-fluoro-4-methoxy-2-pyridyl)-5-[2-[1-hydroxyethyl]pyrimidin-5-yl]-1,3-benzothiazol-2-yl]urea]: the MIC is no more than 1 µg/mL in assay [1], no more than 1 µg/mL in assay [2] and no more than 2 µg/mL in assay [3].
Consider `CCNC(=O)Nc1nc2cc(-c3cnc(C(C)O)nc3)cc(-c3cc(CN4CCSCC4)ccn3)c2s1` (centres unmarked) [Compound 185, 1-ethyl-3-[5-[2-[1-hydroxyethyl]pyrimidin-5-yl]-7-[4-(thiomorpholinomethyl)-2-pyridyl]-1,3-benzothiazol-2-yl]urea], for which the MIC in assay [1] is no more than 1 µg/mL; in assay [2] it was no more than 1 µg/mL; in assay [3] it was no more than 2 µg/mL.
Regarding `CCNC(=O)Nc1nc2cc(-c3cnc(C(C)(C)O)nc3)cc(-c3cc(CN4CCSCC4)ccn3)c2s1` [Compound 187, 1-ethyl-3-[5-[2-(1-hydroxy-1-methyl-ethyl)pyrimidin-5-yl]-7-[4-(thiomorpholinomethyl)-2-pyridyl]-1,3-benzothiazol-2-yl]urea], the MIC in assay [1] is no more than 1 µg/mL; in assay [2] it was no more than 1 µg/mL; in assay [3], no more than 2 µg/mL.
With `CC(=O)NC[C@H]1CN(c2ccc(N3CCOCC3)c(F)c2)C(=O)O1` [Linezolid, reference compound], the survival outcome in assay [6] (10 mg/kg) is “dead by day six”.
